Patent US12558428B2, “Heterobifunctional compounds and their use in treating disease” (Halda Therapeutics OpCo, Inc., priority 2024, dated 2026)
Read-outs that look alike come from different tables or passages of the source.

Key:
Type in all cases: cell-based
[1] = system: MCF7 cells (ATCC #HTB-22); assay: Cellular growth inhibition assay, MCF7 cells purchased from ATCC; conditions: Table 8-A, MCF7 cells purchased from ATCC, six days, CellTiter-Glo, read-out: GI50
Procedure, shortened: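 MCF7 cells in RPMI 1640 with 10% FBS and 0.2 U/ml insulin, seeded at 1,500 cells/well (ATCC) or 225 cells/well (ECACC). Compounds added 24 h later, then 6 days at 37° C. Viability by CellTiter-Glo 2.0 luminescence. GI50 from four-parameter fit.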

[2] = system: T-Rex 293 cells lacking increased expression of estrogen receptor alpha protein; assay: Cellular growth inhibition assay, T-Rex 293 cells, (−) doxycycline; conditions: Table 7-A, T-Rex 293 cells without doxycycline (lacking increased ERα expression), 72 hours, CellTiter-Glo, read-out: (−) Dox GI50
Procedure, shortened: (§1)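 Viability read-out was CellTiter-Glo 2.0 luminescence after 72 h compound exposure, normalized to zero luminescence and fitted by four-parameter regression to give GI50. Cells were an ERα-inducible T-Rex 293 clone cultured with or without 3 ng/mL doxycycline in charcoal-stripped, phenol red-free medium.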

[3] = system: T-Rex 293 cells having increased expression of estrogen receptor alpha protein; assay: Cellular growth inhibition assay, T-Rex 293 cells, (+) doxycycline; conditions: Table 7-A, T-Rex 293 cells with doxycycline (increased ERα expression), 72 hours, CellTiter-Glo, read-out: (+) Dox GI50
Procedure, shortened: as §1

Row | SMILES | GI50 ([1]; Homo sapiens, MCF7, 144 h) [nM] | GI50 ([2]; T-REx-293, 72 h) [nM] | GI50 ([3]; T-REx-293, 72 h) [nM] | GI50 [1] [nM] | GI50 [2] [nM] | GI50 [3] [nM]
1 | Cc1sc2c(c1C)C(c1ccc(N3CCC(CN4CC(COc5ccc([C@@H]6c7ccc(O)cc7CC[C@@H]6c6ccccc6)cc5)C4)CC3)cc1)=N[C@@H](C)c1nnc(C)n1-2 [III-10] | 50 to 500 | 50 to 500 | < 50 |  |  | 
2 | Cc1sc2c(c1C)C(c1ccc(N3CC4(CCN(CC5CCN(c6ccc([C@H]7c8ccc(O)cc8CC[C@H]7c7ccccc7)cc6)CC5)CC4)C3)cc1)=N[C@@H](C)c1nnc(C)n1-2 [III-11] | 50 to 500 | 50 to 500 | < 50 |  |  | 
3 | Cc1sc2c(c1C)C(c1ccc(N3CC4(CCN(CC5CCN(c6ccc([C@@H]7c8ccc(O)cc8CC[C@@H]7c7ccccc7)cc6)CC5)CC4)C3)cc1)=N[C@@H](C)c1nnc(C)n1-2 [III-12] | 50 to 500 | 500 to 2500 | < 50 |  |  | 
4 | Cc1sc2c(c1C)C(c1ccc(CC3CC4(CCCN(c5ccc([C@H]6c7ccc(O)cc7CC[C@H]6c6ccccc6)cc5)C4)C3)cc1)=N[C@@H](C)c1nnc(C)n1-2 (stereo partly drawn) [III-13] | 500 to 2500 | > 2500 | 500 to 2500 |  |  | 
5 | Cc1sc2c(c1C)C(c1ccc(CC3CC4(CCN(c5ccc([C@@H]6c7ccc(O)cc7CC[C@@H]6c6ccccc6)cc5)CC4)C3)cc1)=N[C@@H](C)c1nnc(C)n1-2 [III-14] | 500 to 2500 | 500 to 2500 | 50 to 500 |  |  | 
6 | Cc1sc2c(c1C)C(c1ccc(CC3CC4(CCN(c5ccc([C@H]6c7ccc(O)cc7CC[C@H]6c6ccccc6)cc5)CC4)C3)cc1)=N[C@@H](C)c1nnc(C)n1-2 [III-15] | 500 to 2500 | 500 to 2500 | 500 to 2500 |  |  | 
7 | Cc1sc2c(c1C)C(c1ccc(N3CCN(CCOc4ccc([C@@H]5c6ccc(O)cc6CC[C@@H]5c5ccccc5)cc4)CC3)cc1)=N[C@@H](C)c1nnc(C)n1-2 [III-16] | 50 to 500 | 50 to 500 | 50 to 500 |  |  | 
8 | Cc1sc2c(c1C)C(c1ccc(N3CCN(CCOc4ccc([C@H]5c6ccc(O)cc6CC[C@H]5c5ccccc5)cc4)CC3)cc1)=N[C@@H](C)c1nnc(C)n1-2 [III-17] | 500 to 2500 | 500 to 2500 | 500 to 2500 |  |  | 
9 | Cc1sc2c(c1C)C(c1ccc(C#CC3CC4(CCN(c5ccc([C@H]6c7ccc(O)cc7CC[C@H]6c6ccccc6)cc5)CC4)C3)cc1)=N[C@@H](C)c1nnc(C)n1-2 [III-18] | 500 to 2500 | > 2500 | > 2500 |  |  | 
10 | Cc1sc2c(c1C)C(c1ccc(C#CC3CC4(CCN(c5ccc([C@@H]6c7ccc(O)cc7CC[C@@H]6c6ccccc6)cc5)CC4)C3)cc1)=N[C@H](Cc1ncco1)c1nnc(C)n1-2 [III-19] | > 2500 | > 2500 | > 2500 |  |  | 
11 | Cc1sc2c(c1C)C(c1ccc(C#CC3CC4(CCN(c5ccc([C@H]6c7ccc(O)cc7CC[C@H]6c6ccccc6)cc5)CC4)C3)cc1)=N[C@H](Cc1ncco1)c1nnc(C)n1-2 [III-20] | > 2500 | > 2500 | > 2500 |  |  | 
12 | Cc1sc2c(c1C)C(c1ccc(C#CC3CC4(CCN(c5ccc([C@H]6c7ccc(O)cc7CC[C@H]6c6ccccc6)cc5)CC4)C3)cc1)=N[C@@H](Cc1ncco1)c1nnc(C)n1-2 [III-21] | 500 to 2500 | > 2500 | 500 to 2500 |  |  | 
13 | Cc1sc2c(c1C)C(c1ccc(C3CCN(C[C@@H]4[C@H]5CN(c6ccc([C@H]7c8ccc(O)cc8CC[C@H]7c7ccccc7)cc6)C[C@@H]45)CC3)cc1)=N[C@@H](C)c1nnc(C)n1-2 [III-22] | 50 to 500 | 500 to 2500 | < 50 |  |  | 
14 | Cc1sc2c(c1C)C(c1ccc(N3CCN(C[C@@H]4[C@H]5CN(c6ccc([C@@H]7c8ccc(O)cc8CC[C@@H]7c7ccccc7)cc6)C[C@@H]45)CC3)cc1)=N[C@@H](C)c1nnc(C)n1-2 [III-23] | 50 to 500 | > 2500 | < 50 |  |  | 
15 | Cc1sc2c(c1C)C(c1ccc(N3CCC(O)(CN4CCC(c5ccc([C@H]6c7ccc(O)cc7CC[C@H]6c6ccccc6)cc5)CC4)CC3)cc1)=N[C@@H](C)c1nnc(C)n1-2 [III-24] | 50 to 500 | 50 to 500 | < 50 |  |  | 
16 | Cc1sc2c(c1C)C(c1ccc(N3CCC(O)(CN4CCC(c5ccc([C@@H]6c7ccc(O)cc7CC[C@@H]6c6ccccc6)cc5)CC4)CC3)cc1)=N[C@@H](C)c1nnc(C)n1-2 [III-25] | < 50 | 500 to 2500 | < 50 |  |  | 
17 | Cc1sc2c(c1C)C(c1ccc(C3CCN(CC4(O)CCN(c5ccc([C@@H]6c7ccc(O)cc7CC[C@@H]6c6ccccc6)cc5)CC4)CC3)cc1)=N[C@@H](C)c1nnc(C)n1-2 [III-26] | 50 to 500 | 50 to 500 | < 50 |  |  | 
18 | Cc1sc2c(c1C)C(c1ccc(C3CCN(CC4(O)CCN(c5ccc([C@H]6c7ccc(O)cc7CC[C@H]6c6ccccc6)cc5)CC4)CC3)cc1)=N[C@@H](C)c1nnc(C)n1-2 [III-27] | 50 to 500 | 50 to 500 | < 50 |  |  | 
19 | Cc1sc2c(c1C)C(c1ccc(N[C@H]3CCN(CCOc4ccc([C@@H]5c6ccc(O)cc6CC[C@@H]5c5ccccc5)cc4)C3)cc1)=NC(Cc1ncco1)c1nnc(C)n1-2 (stereo partly drawn) [III-28] | 50 to 500 | 50 to 500 | 50 to 500 |  |  | 
20 | Cc1sc2c(c1C)C(c1ccc(NCCN3CCN(CCOc4ccc([C@@H]5c6ccc(O)cc6CC[C@@H]5c5ccccc5)cc4)CC3)cc1)=NC(Cc1ncco1)c1nnc(C)n1-2 (stereo partly drawn) [III-29] | 50 to 500 | 50 to 500 | < 50 |  |  | 
21 | Cc1sc2c(c1C)C(c1ccc(NCC3(F)CCN(CCOc4ccc([C@@H]5c6ccc(O)cc6CC[C@@H]5c5ccccc5)cc4)CC3)cc1)=NC(Cc1ncco1)c1nnc(C)n1-2 (stereo partly drawn) [III-30] | 50 to 500 | 50 to 500 | < 50 |  |  | 
22 | Cc1sc2c(c1C)C(c1ccc(N3C4CCC3CN(CCOc3ccc([C@@H]5c6ccc(O)cc6CC[C@@H]5c5ccccc5)cc3)C4)cc1)=NC(Cc1ncco1)c1nnc(C)n1-2 (stereo partly drawn) [III-31] | 50 to 500 | 50 to 500 | > 2500 |  |  | 
23 | Cc1sc2c(c1C)C(c1ccc(NCCN3CCN(CCOc4ccc([C@@H]5c6ccc(O)cc6CC[C@@H]5c5ccccc5)cc4)CC3)cc1)=NC(Cc1ncco1)c1nnc(C)n1-2 (stereo partly drawn) [III-32] |  |  |  | 50 to 500 | 50 to 500 | < 50
24 | Cc1sc2c(c1C)C(c1ccc(NCC3CCN(CCOc4ccc([C@@H]5c6ccc(O)cc6CC[C@@H]5c5ccccc5)cc4)CC3)cc1)=NC(Cc1ncco1)c1nnc(C)n1-2 (stereo partly drawn) [III-33] | 50 to 500 | 50 to 500 | < 50 |  |  | 
25 | Cc1sc2c(c1C)C(c1ccc(NC3CCCN(CCOc4ccc([C@@H]5c6ccc(O)cc6CC[C@@H]5c5ccccc5)cc4)CC3)cc1)=NC(Cc1ncco1)c1nnc(C)n1-2 (stereo partly drawn) [III-34] | 50 to 500 | 50 to 500 | < 50 |  |  | 
26 | Cc1sc2c(c1C)C(c1ccc(N3CCC(N4CCN(CCOc5ccc([C@@H]6c7ccc(O)cc7CC[C@@H]6c6ccccc6)cc5)CC4)CC3)cc1)=NC(Cc1ncco1)c1nnc(C)n1-2 (stereo partly drawn) [III-35] | < 50 | 50 to 500 | < 50 |  |  | 
27 | Cc1sc2c(c1C)C(c1ccc(N3CCC4(CCN(CCOc5ccc([C@@H]6c7ccc(O)cc7CC[C@@H]6c6ccccc6)cc5)C4)CC3)cc1)=NC(Cc1ncco1)c1nnc(C)n1-2 (stereo partly drawn) [III-36] | < 50 | 50 to 500 | < 50 |  |  | 
28 | Cc1sc2c(c1C)C(c1ccc(NCCCN3CCN(CCOc4ccc([C@@H]5c6ccc(O)cc6CC[C@@H]5c5ccccc5)cc4)CC3)cc1)=NC(Cc1ncco1)c1nnc(C)n1-2 (stereo partly drawn) [III-37] | < 50 | 50 to 500 | < 50 |  |  | 
